According to US12655116B2, “Substituted isophthalic acid diamides” (Bayer Aktiengesellschaft, priority 2020, dated 2026):

Key:
ABUTH [1] = test: Post-emergence herbicidal action against ABUTH; type: in vivo, Abutilon theophrasti; settings: visual assessment about 3 weeks after treatment vs untreated controls
Procedure, shortened: (§1)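 Greenhouse pot plants in sandy loam were sprayed at the one-leaf stage, 2 to 3 weeks after sowing, with WP or EC formulations as aqueous suspension or emulsion (600 to 800 l/ha water, 0.2% wetting agent). About 3 weeks later, damage was scored visually against untreated controls as % action (100% = dead, 0% = like control).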

ALOMY [2] = test: Post-emergence herbicidal action against ALOMY; type: in vivo, Alopecurus myosuroides; settings: visual assessment about 3 weeks after treatment vs untreated controls
Procedure, shortened: as §1

ALOMY [3] = test: Pre-emergence herbicidal action against ALOMY; type: in vivo, Alopecurus myosuroides; settings: for Pre-emergence action against ALOMY (herbicidal activity): 80 g/ha, scored visually after 3 weeks vs untreated controls (100% = plants have died, 0% = like control plants)
Procedure, shortened: (§2)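 Visual rating at 3 weeks vs untreated pots; 0–100% scale, 100% = plants died. Treatment: aqueous WP/EC spray onto covering soil, 600–800 l/ha, 0.2% wetter, seeds in sandy loam.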

AMARE [4] = test: Post-emergence herbicidal action against AMARE; type: in vivo, Amaranthus retroflexus; settings: 20 g/ha, visual assessment about 3 weeks after treatment, 100% = plants have died, 0% = like control plants
Procedure, shortened: as §1

ECHCG [5] = test: Post-emergence herbicidal action against ECHCG; type: in vivo, Echinochloa crus-galli
Procedure, shortened: as §1

SETVI [6] = test: Pre-emergence herbicidal action against SETVI; type: in vivo, Setaria viridis
Procedure, shortened: as §2

ECHCG [7] = test: Pre-emergence herbicidal action against ECHCG; type: in vivo, Echinochloa crus-galli
Procedure, shortened: as §2

AMARE [8] = test: Pre-emergence herbicidal action against AMARE; type: in vivo, Amaranthus retroflexus
Procedure, shortened: as §2

SETVI [9] = test: Post-emergence herbicidal action against SETVI; type: in vivo, Setaria viridis
Procedure, shortened: as §1

ABUTH [10] = test: Pre-emergence herbicidal action against ABUTH; type: in vivo, Abutilon theophrasti; settings: for Pre-emergence action against ABUTH (herbicidal activity): 80 g/ha, scored visually after 3 weeks vs untreated controls (100% = plants have died, 0% = like control plants); for Pre-emergence action against ABUTH (herbicidal activity in percent): dosage 20 g/ha, scored visually after 3 weeks vs untreated controls, 100% = plants have died, 0% = like control plants
Procedure, shortened: as §2

MATIN [11] = test: Pre-emergence herbicidal action against MATIN; type: in vivo, Matricaria inodora
Procedure, shortened: as §2

PHBPU [12] = test: Pre-emergence herbicidal action against PHBPU; type: in vivo, Pharbitis purpurea
Text: Seeds of monocotyledonous and dicotyledonous weed plants and crop plants are laid out in sandy loam soil in wood-fiber pots and covered with soil. The compounds of the invention, formulated in the form of wettable powders (WP) or as emulsion concentrates (EC), are then applied to the surface of the covering soil in the form of an aqueous suspension or emulsion at a water application rate equivalent to 600 to 800 l/ha, with addition of 0.2% wetting agent. After the treatment, the pots are placed in a greenhouse and kept under good growth conditions for the trial plants. The damage to the test plants is scored visually after a test period of 3 weeks by comparison with untreated controls (herbicidal activity in percent (%): 100% activity=the plants have died, 0% activity=like control plants). […] The tables below illustrate, in an illustrative manner, the post-emergence herbicidal action of the compounds of the invention, the herbicidal activity being stated in percent.

VIOTR [13] = test: Post-emergence herbicidal action against VIOTR; type: in vivo, Viola tricolor
Procedure, shortened: as §1

AVEFA = test: Pre-emergence herbicidal action against AVEFA; type: in vivo, Avena fatua; settings: 80 g/ha, pre-emergence
Procedure, shortened: as §2

MATIN [14] = test: Post-emergence herbicidal action against MATIN; type: in vivo, Matricaria inodora
Procedure, shortened: as §1

PHBPU [15] = test: Post-emergence herbicidal action against PHBPU; type: in vivo, Pharbitis purpurea; settings: dosage 20 g/ha
Procedure, shortened: as §1

DIGSA [16] = test: Post-emergence herbicidal action against DIGSA; type: in vivo, Digitaria sanguinalis; settings: for Post-emergence action against DIGSA in %: 5 g/ha; for Post-emergence action against DIGSA: 20 g/ha
Procedure, shortened: as §1

DIGSA [17] = test: Pre-emergence herbicidal action against DIGSA; type: in vivo, Digitaria sanguinalis
Procedure, shortened: as §2

VERPE = test: Pre-emergence herbicidal action against VERPE; type: in vivo, Veronica persica
Procedure, shortened: as §2

VIOTR [18] = test: Pre-emergence herbicidal action against VIOTR; type: in vivo, Viola tricolor
Procedure, shortened: as §2

[19] = 20 g/ha, scored visually after 3 weeks vs untreated controls, 100% = plants have died, 0% = like control plants
[20] = 80 g/ha, scored visually after 3 weeks vs untreated controls (100% = plants have died, 0% = like control plants)

SMILES	Post-emergence action against ABUTH in % (ABUTH [1]; dosage 5 g/ha)	Post-emergence action against ABUTH in % (ABUTH [1]; dosage 20 g/ha)	Post-emergence action against ALOMY in % (ALOMY [2]; dosage 20 g/ha)	Pre-emergence action against ALOMY (herbicidal activity) (ALOMY [3])	Post-emergence action at 20 g/ha against AMARE in % (AMARE [4])	Post-emergence action against ECHCG in % (ECHCG [5]; dosage 20 g/ha)	Pre-emergence action against SETVI in % (SETVI [6]; dosage 80 g/ha)	Pre-emergence action against ECHCG in % (ECHCG [7]; 80 g/ha)	Pre-emergence action against AMARE in % (AMARE [8]; [19])	Pre-emergence action against AMARE in % (AMARE [8]; [20])	Post-emergence action against SETVI in % (SETVI [9]; dosage 20 g/ha)	Pre-emergence action against ABUTH (herbicidal activity) (ABUTH [10])	Pre-emergence action against ABUTH (herbicidal activity in percent) (ABUTH [10])	Pre-emergence action against MATIN in % (MATIN [11]; dosage 80 g/ha)	Pre-emergence action against PHBPU in % (PHBPU [12]; dosage 80 g/ha)	Pre-emergence action against AVEFA in % (AVEFA)	Post-emergence action against MATIN in % (MATIN [14]; dosage 20 g/ha)	Post-emergence action against PHBPU in % (PHBPU [15])	Pre-emergence action against MATIN in % (MATIN [11]; dosage 20 g/ha)	Pre-emergence action against VIOTR in % (VIOTR [18]; dosage 80 g/ha)	other results
COCCNC(=O)c1c(Br)ccc(C(=O)Nc2nnnn2C)c1Cl [Example 1-186]	90%	90%	90%	90%	100%	90%	80%	80%	80%	100%	80%	100%	100%	90%	80%						Post-emergence action against ALOMY in % (ALOMY [2]; dosage 5 g/ha): 80%
Cn1nnnc1NC(=O)c1ccc(C(F)(F)F)c(C(=O)NCC2CC2)c1Br [Example 1-210]	80%	90%	100%	80%		80%	100%	100%	100%	100%	90%	100%	100%	100%	80%	90%	90%	100%	100%	100%	Post-emergence action against ALOMY in % (ALOMY [2]; dosage 5 g/ha): 80%; Pre-emergence action against ECHCG in % (ECHCG [7]; 20 g/ha): 80%; Post-emergence action against VIOTR in % (VIOTR [13]; 20 g/ha): 90%; Post-emergence action against MATIN in % (MATIN [14]; dosage 5 g/ha): 80%; Post-emergence action against SETVI in % (SETVI [9]; dosage 5 g/ha): 80%; Post-emergence action against DIGSA in % (DIGSA [16]): 80%; Post-emergence action against DIGSA (DIGSA [16]): 90%; Pre-emergence action against DIGSA in % (DIGSA [17]; dosage 20 g/ha): 100%; Pre-emergence action against DIGSA in % (DIGSA [17]; dosage 80 g/ha): 100%; Pre-emergence action against VERPE in % (VERPE; dosage 80 g/ha): 80%; Pre-emergence action against VIOTR in % (VIOTR [18]; dosage 20 g/ha): 100%
CCn1nnnc1NC(=O)c1ccc(Br)c(C(=O)NCC(F)(F)F)c1Cl [Example 2-181]			90%	80%		90%	100%	100%	100%	100%	90%	100%	100%	100%	80%	90%	90%	90%	90%	80%	Post-emergence action against MATIN in % (MATIN [14]; dosage 5 g/ha): 80%; Pre-emergence action against DIGSA in % (DIGSA [17]; dosage 80 g/ha): 100%; Pre-emergence action against VERPE in % (VERPE; dosage 80 g/ha): 100%
CCn1nnnc1NC(=O)c1ccc(Br)c(C(=O)NC(C)C)c1Cl [Example 2-185]	90%	100%	90%	90%	100%	100%	100%	90%	100%	100%	80%	100%	100%	100%	100%	100%	90%		100%	100%	Post-emergence action against VIOTR in % (VIOTR [13]; 5 g/ha): 100%; Post-emergence action against VIOTR in % (VIOTR [13]; 20 g/ha): 100%; Post-emergence action against MATIN in % (MATIN [14]; dosage 5 g/ha): 80%; Pre-emergence action against VIOTR in % (VIOTR [18]; dosage 20 g/ha): 80%
CCn1nnnc1NC(=O)c1ccc(C(F)(F)F)c(C(=O)NCC2CC2)c1Br [Example 2-210]	80%	80%	90%	100%	100%	90%	100%	100%	100%	100%	80%	100%	100%	100%	90%	90%	90%	90%	100%	100%	Pre-emergence action against ECHCG in % (ECHCG [7]; 20 g/ha): 80%; Post-emergence action against VIOTR in % (VIOTR [13]; 20 g/ha): 90%; Post-emergence action against DIGSA in % (DIGSA [16]): 80%; Post-emergence action against DIGSA (DIGSA [16]): 90%; Pre-emergence action against PHBPU in % (PHBPU [12]; dosage 20 g/ha): 80%; Pre-emergence action against DIGSA in % (DIGSA [17]; dosage 20 g/ha): 100%; Pre-emergence action against DIGSA in % (DIGSA [17]; dosage 80 g/ha): 100%; Pre-emergence action against VIOTR in % (VIOTR [18]; dosage 20 g/ha): 100%
Cc1nnc(NC(=O)c2ccc(C(F)(F)F)c(C(=O)NC3CCC3)c2C)o1 [Example 6-256]	80%	90%		90%	90%	90%	100%	100%	90%	100%		100%		90%	80%	80%		90%		90%	Pre-emergence action against ALOMY (ALOMY [3]; 20 g/ha, scored visually after 3 weeks, 100% = plants have died, 0% = like control plants): 80%; Post-emergence action against ECHCG in % (ECHCG [5]; dosage 5 g/ha): 90%; Pre-emergence action against SETVI in % (SETVI [6]; dosage 20 g/ha): 80%; Pre-emergence action against ECHCG in % (ECHCG [7]; 20 g/ha): 80%; Post-emergence action against DIGSA in % (DIGSA [16]): 80%; Post-emergence action against DIGSA (DIGSA [16]): 90%; Pre-emergence action against DIGSA in % (DIGSA [17]; dosage 20 g/ha): 90%; Pre-emergence action against DIGSA in % (DIGSA [17]; dosage 80 g/ha): 100%; Pre-emergence action against VERPE in % (VERPE; dosage 20 g/ha): 80%; Pre-emergence action against VERPE in % (VERPE; dosage 80 g/ha): 80%; Pre-emergence action against VIOTR in % (VIOTR [18]; dosage 20 g/ha): 90%
